Measurements published in patent publication US10774124B2, “Protease resistant mutants of stromal cell derived factor-1 in the repair of tissue damage” (THE BRIGHAM AND WOMEN'S HOSPITAL, INC., priority 2006, dated 2020).
Where two headings read alike, the source gives them in different places. No end group written: not given here.

Tests used:
[1] = tested on: T lymphocytes and CEM cells; settings: cited from earlier work; for induce chemotaxis: T lymphocytes and CEM cells; for fold less potent than SDF-1: chemoattractant activity, relative to native SDF-1; for EC50: read-out: half-maximal chemoattractant activity
[2] = biological target: CXC chemokine receptor 4 (CXCR4) (Homo sapiens, UniProt P61073); settings: cited from earlier work
[3] = tested on: T lymphocytes and CEM cells; settings: cited from earlier work
MMP-2 [4] = biological target: T1, MMP-2 (Homo sapiens, UniProt P08253); assay: MMP-2 cleavage, incubation product examined by SDS-PAGE; type: biochemical; settings: for cleavage by MMP-2 (SDS-PAGE): 2 nmole peptide incubated with MMP-2 for 1 h at RT
T1 sequence (P08253 110-660): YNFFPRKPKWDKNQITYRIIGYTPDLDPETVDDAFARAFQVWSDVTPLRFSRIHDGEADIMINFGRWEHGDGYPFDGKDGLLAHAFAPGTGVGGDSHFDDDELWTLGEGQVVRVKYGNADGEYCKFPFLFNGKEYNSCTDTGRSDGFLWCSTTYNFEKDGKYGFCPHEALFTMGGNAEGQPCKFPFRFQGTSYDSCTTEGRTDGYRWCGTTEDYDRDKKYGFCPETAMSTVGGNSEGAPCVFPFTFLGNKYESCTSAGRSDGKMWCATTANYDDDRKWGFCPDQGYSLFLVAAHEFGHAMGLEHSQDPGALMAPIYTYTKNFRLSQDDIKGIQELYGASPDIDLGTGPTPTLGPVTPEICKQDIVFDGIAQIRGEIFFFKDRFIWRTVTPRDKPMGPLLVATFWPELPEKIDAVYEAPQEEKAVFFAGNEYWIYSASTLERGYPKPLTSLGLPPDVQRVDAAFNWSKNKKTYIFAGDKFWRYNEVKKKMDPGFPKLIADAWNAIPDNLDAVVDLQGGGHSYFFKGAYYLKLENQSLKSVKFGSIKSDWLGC
Description: The susceptibility of the peptides to cleavage by MMP-2 was determined by incubating the mutants with the enzyme for one hour and then examining the incubation product by SDS-PAGE.
Cleavage experiments of the peptides with MMP-2 were performed: 2 nmole of SDF-1 17AA, SDF-1(S4V) 17AA, and SDF-1(L5P) 17AA were incubated with MMP-2 for 1 h at RT. Proteins were run on an SDS-PAGE showing cleavage of SDF-1 17AA, but not of SDF-1(S4V) 17AA or SDF-1(L5P) 17AA. Thus, these truncated proteins may be useful therapeutically, as they are still bioactive and also MMP-2 resistant.

Jurkat T cells = assay: Jurkat T cell migration assay; type: cell-based; settings: for activity on T-cell migration: compared to native SDF-1; for activity in promoting T cell migration: concentration of 100 nM, versus unmutated SDF-1
Description: Cells from a 4-L growth were lysed in 300 ml lysis buffer (6M Guanidine, 20 mM phosphate (pH 7.8), 500 mM NaCl) and homogenized. Debris is collected by centrifugation at 3000 g. The first purification step consisted of capture of the poly-histidine tag present in the SUMO-SDF-1α fusion protein with Nickel-NTA. Nickel-NTA resin was washed with wash buffer (8M Urea, 500 mM NaCl, 20 mM phosphate (pH 6.2)) and the bound protein was eluted at pH 4. Further purification and oxidative refolding were performed on a Cation Exchange HPLC column. The sample was adjusted to binding buffer (8M Urea, 30 mM 2-mercaptoethanol, 1 mM EDTA, 50 mM Tris pH8) and loaded on the HPLC column. Refolding of Sumo-SDF-1 was performed on the column with a 2 h run of refolding buffer (50 mM Tris pH8, 75 mM NaCl, 0.1 mM reduced Glutathione and 0.1 mM oxidized Glutathione). Sumo-SDF-1 was eluted with a step gradient (0.5 to 1M NaCl) and concentrated. The SUMO-SDF-1 fusion protein was cleaved by Sumo Protease 1 (IU/50 μg protein) in 50 mM Tris pH 8.0, 500 mM NaCl. The sample was adjusted to 0.1% trifluoroacetic acid (TFA) and loaded on a C18 Reversed Phase HPLC column for the final purification step. The column was subjected to a linear gradient from 30 to 40% acetonitrile in 0.1% TFA. The fractions containing SDF-1 were lyophilized and resuspended. Activity of purified SDF-1 was tested by migration of Jurkat T-lymphocyte cell line.
The mutated forms of SDF-1 were examined in an assay of migration of Jurkat T cells at a concentration of 100 nM.
Migration experiments were performed with the Jurkat T-lymphocyte cell line. […] Therefore, if 500 times higher concentrations were used compared to full-length protein, the same migratory response of T-lymphocytes should be observed. […] This is a similar shift to that seen between native SDF-1 and SDF-1(S4V).

MMP-2 [5] = biological target: T1, MMP-2; assay: Jurkat T-cell migration assay after MMP-2 incubation; type: cell-based

Sequence of CXC chemokine receptor 4 (CXCR4) (P61073 whole entry): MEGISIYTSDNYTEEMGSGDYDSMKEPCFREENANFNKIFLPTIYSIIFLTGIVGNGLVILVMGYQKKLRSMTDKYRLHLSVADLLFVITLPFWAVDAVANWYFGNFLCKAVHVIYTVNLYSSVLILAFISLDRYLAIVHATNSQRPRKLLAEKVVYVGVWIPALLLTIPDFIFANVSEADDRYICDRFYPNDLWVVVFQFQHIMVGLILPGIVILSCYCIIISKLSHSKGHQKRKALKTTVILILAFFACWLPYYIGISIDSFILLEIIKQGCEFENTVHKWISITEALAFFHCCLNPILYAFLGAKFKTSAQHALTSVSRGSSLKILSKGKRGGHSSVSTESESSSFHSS

Substance	induce chemotaxis [1]	bind to CXCR4 [2]	induce intracellular calcium [3]	activity on T-cell migration (Jurkat T cells)	activity in promoting T cell migration (Jurkat T cells)	also measured
1-8: peptide of N-terminal residues 1-8 of SDF-1 (KPVSLSYR; UniProt P48061 22-29, looked up, fragment)	induce	bind	induce			
1-9 dimer: dimer of the SDF-1 1-9 peptide (KPVSLSYRC; also: dimer; UniProt P48061 22-30, looked up, fragment)	induce	bind	induce			fold less potent than SDF-1 [1]: 100 fold; EC50 [1]: 500 nM
1-9: peptide of N-terminal residues 1-9 of SDF-1 (KPVSLSYRC; UniProt P48061 22-30, looked up, fragment)	induce	bind	induce			fold less potent than SDF-1 [1]: 3600 fold
1-17: peptide of N-terminal residues 1-17 of SDF-1 (KPVSLSYRCPCRFFESH; UniProt P48061 22-38, looked up, fragment)	induce	bind	induce			fold less potent than SDF-1 [1]: 400 fold
SCR: GIVGPL (SEQ ID NO:58), linker sequence, a scrambled version of the MMP-2 cleavage site MCS (listed as Homo sapiens)						MMP-2 cleavage of linker sequence (MMP-2 [4]; rate compared with MCS): undergo MMP-2 cleavage, although at a slower rate than MCS
SDF-1 17AA: KPVSLSYRCPCRFFESH (SEQ ID 64), first 17 amino acids of native SDF-1 (listed as Homo sapiens)						times less potent than native SDF-1 (Jurkat T cells; Jurkat T-lymphocyte migration): 500 times; cleavage by MMP-2 (SDS-PAGE) (MMP-2 [4]): cleavage
SDF-1(L5E): SDF-1 mutant, leucine at position 5 changed to glutamic acid				minimal activity	greatly reduced	
SDF-1(L5P) 17AA: KPVSPSYRCPCRFFESH (SEQ ID 66) (listed as Homo sapiens)						times less potent than SDF-1 17AA without mutation (Jurkat T cells; Jurkat T-lymphocyte migration): three times less potent; cleavage by MMP-2 (SDS-PAGE) (MMP-2 [4]): not
SDF-1(L5P): SDF-1 mutant, leucine at position 5 changed to proline, SEQ ID NO:56				bioactivity comparable to native SDF-1	retained most of the activity of unmutated SDF-1	
SDF-1(L5W): SDF-1 mutant, leucine at position 5 changed to tryptophan				minimal activity	greatly reduced	
SDF-1(S4V) 17AA: KPVVLSYRCPCRFFESH (SEQ ID 65) (listed as Homo sapiens)						times less potent than SDF-1 17AA without mutation (Jurkat T cells; Jurkat T-lymphocyte migration): three times less potent; cleavage by MMP-2 (SDS-PAGE) (MMP-2 [4]): not
SDF-1(S4V): SDF-1 mutant, serine at position 4 changed to valine, SEQ ID NO:54				bioactivity comparable to native SDF-1	retained most of the activity of unmutated SDF-1	chemoattractant activity after MMP-2 incubation (MMP-2 [5]): not; chemoattractant activity after MMP-2 incubation (MMP-2 [5]; listed as S4V variant of SDF-1): resistant to activation by MMP-2
stromal cell derived factor-1 [SDF-1]						chemoattractant activity after MMP-2 incubation (MMP-2 [5]): reduce the chemoattractant activity; EC50 [1]: 5 nM; cleavage by MMP-2 (positional shift on SDS-PAGE) (MMP-2 [4]; incubated with the enzyme for one hour): positional shift indicative of cleavage
